From US12129244B2, “Modulators of Mas-related G-protein receptor X2 and related products and methods” (Escient Pharmaceuticals, Inc., priority 2022, dated 2024)

Legend:
human MRGPRX2 = target: T1, human MRGPRX2 (Homo sapiens, UniProt Q96LB1); assay: MRGPRX2 activity: IP-One HTRF antagonist assay in CHO cells versus Cortistatin-14; assay type: cell-based; settings: CHO cells stably expressing human MRGPRX2; versus 0.3 uM Cortistatin-14 agonist; IP-1 HTRF
T1 construct: expressed in transfected cells
T1 sequence (Q96LB1 1-330): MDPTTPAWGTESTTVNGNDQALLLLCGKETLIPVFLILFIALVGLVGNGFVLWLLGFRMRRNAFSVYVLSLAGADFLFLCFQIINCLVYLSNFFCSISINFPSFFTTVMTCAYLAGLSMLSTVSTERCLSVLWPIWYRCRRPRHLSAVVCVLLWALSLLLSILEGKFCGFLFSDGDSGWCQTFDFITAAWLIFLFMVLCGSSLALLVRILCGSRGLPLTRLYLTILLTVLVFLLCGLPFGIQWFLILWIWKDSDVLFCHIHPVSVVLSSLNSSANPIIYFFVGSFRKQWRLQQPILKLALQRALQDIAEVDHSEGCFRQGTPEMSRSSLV
Description: CHO cells stably transfected to express human MRGPRX2 were maintained in an incubator at 37° C. with 5% CO2 and grown in F12 (HAM) media with 10% fetal bovine serum (FBS), 1% Glutamax, 1% penicillin/streptomycin, 800 μg/mL Geneticin (G418), and 300 μg/mL Hygromycin B.
Cells were plated in a 384-well assay plate at 20,000 cells per well in 12 μL of Opti-MEM and kept in an incubator overnight. On the day of the assay, compounds solubilized at 10 mM in DMSO were added as a 10-point curve (30 uM final top concentration with 1:3 serial dilutions) using a Tecan D300E digital dispenser. Agonists were diluted in assay buffer (final concentrations of 5.7 mM Tris-HCl, 43 mM NaCl, 50 mM LiCl, pH=8) and 2 μL of the agonist Cortistatin-14 (CPC Scientific, catalog CORT-002) are added to each well. Final concentrations of agonists were 0.3 μM Cortistatin. Final concentrations of DMSO were kept consistent across the plate. Plates were incubated in the dark for 1 h at 37° C. and then for 1 h at room temperature. IP-1 standards and HTRF detection reagents were added according to the IP-One-Gq Kit purchased from Cisbio (part number 62IPAPEJ) and incubated in the dark for 1 h at room temperature. The plate was read on a Molecular Devices SpectraMax iD5 plate reader. The HTRF ratio was calculated from the raw data and graphed using GraphPad Prism to calculate an IC50 value for each compound.
The activity ranges are denoted as follows: “+++++” denotes antagonist activity <100 nM; “++++” denotes antagonist activity between 100 and 500 nM; “+++” denotes activity between 501 and 1000 nM; “[…]” denotes activity between 1001 and 2500 nM; and “+” denotes activity >2500 nM

Human LAD2 cells = assay: Mast Cell Beta-Hexosaminidase Release Assay; assay type: cell-based; settings: 500 nM Cortistatin-14, read-out: MRGPRX2 Antagonist Activity
Description: Human LAD2 cells (NIH) were maintained in an incubator at 37° C. with 5% CO2 and cultured in StemPro-34 serum-free media (Gibco 10639011) supplemented with 2 mM L-glutamine, 100 U/ml penicillin, […] streptomycin and 100 ng/ml SCF (Invitrogen PEP0860), at a concentration of 2-5×10^5 cells/mL, with hemidepletion every 1-2 weeks.
Cells were transferred to SCF-Free medium at 2.5×10^5 cells/mL and kept in an incubator overnight. On the day of the assay, cells were washed twice in Assay Buffer (final concentrations 10 mM HEPES, 137 mM NaCl, 5.6 mM D-glucose, 2.7 mM KCl, 1 mM MgCl, 1.8 mM CalCl2, 0.4 mM Na2HPO4·7H2O, 0.04% BSA, pH=7.4) and plated in a 96-well v-bottom plate at 20,000 cells per well in 80 μL Assay Buffer. Antagonist compounds solubilized at 10 mM in DMSO were diluted in Assay Buffer to 10× final desired concentrations as a 10-point curve (10 μM final top concentration with 1:3 serial dilutions) and 10 μL added per well. Plates were then incubated for 1 hour at 37° C. Agonists were diluted in Assay Buffer to 10× desired concentrations and 10 μL of the appropriate agonist added to each well. The final concentration of Cortistatin-14 (Tocris 3374) used in antagonist assays was 500 nM. Final concentrations of DMSO were kept consistent across the plate. Plates were then incubated in a warm air oven for 30 minutes at 37° C., followed by centrifugation at 4° C. for 5 minutes at 450×g. 50 μL supernatant from each well was then transferred to a 96-well flat bottom plate containing 100 μL substrate solution per well (3.5 mg/mL p-Nitrophenyl-N-acetyl-β-D-glucosaminide (Sigma 487052) in Citrate Buffer containing a final concentration of 40 mM Citric Acid, 20 mM Na2HPO4·7H2O, pH=4.5). To the cell pellets left in the remaining assay buffer, 150 μL 0.1% Triton-X-100 was then added to each well, resuspended by pipetting up and down, and 50 μL cell lysates transferred to a second 96-well flat bottom plate containing 100 μL substrate solution per well. Plates containing transferred supernatant and cell lysates were then incubated in a warm air oven for 90 minutes at 37° C. After incubation, 50 μL of 400 mM Glycine buffer (pH 10.7) was added into each well and the plate was read on a Molecular Devices SpectraMax iD5 plate reader (absorbance at 405 nm with reference filter at 620 nm). After background subtraction, the percentage degranulation (percent beta-hexosaminidase release) was calculated as 100×(supernatant values)/(supernatant+lysate values), followed by analysis using GraphPad Prism software to calculate an IC50 value for each compound.
The activity ranges are denoted as follows: “+++++” denotes antagonist activity <100 nM; “++++” denotes antagonist activity between 100 and 500 nM; “+++” denotes activity between 501 and 1000 nM; “++” denotes activity between 1001 and 2500 nM; and “+” denotes activity >2500 nM.

[1] = Mouse Pharmacokinetics Studies (50 mg/kg oral gavage, plasma LC-MS/MS); assay type: in vivo; settings: Male C57BL/6 mice, non-fasted; for AUC(0-t) / Cmax / Tmax: mouse; for Tmax: read-out: PK: Tmax
Description: Compounds were formulated in 5% DMSO, 5% Solutol, and 90% PBS without Ca and Mg (pH 7.4) at a concentration of 5 mg/mL. Male C57BL/6 mice (n=3/compound) were administered a 50 mg/kg dose of each compound by oral gavage under a non-fasted condition. Blood samples were collected via the saphenous vein onto K2-EDTA at 0.25, 0.5, 1, 2, 4, 8 and 24 hours after dosing, and plasma was prepared and stored at −80° C. until analysis. Plasma sample preparation for analysis was done by protein precipitation using acetonitrile (including Verapamil as an internal standard) followed by centrifugation. Compound concentrations were determined in extracted plasma using LC-MS/MS relative to a 12-point standard curve covering the 1 to 4000 nM range. Non-compartmental analysis using Phoenix WinNonlin was used to estimate pharmacokinetic parameters including area under the curve, clearance, and half-life. The administered dose was confirmed by analysis of residual dosing material by UPLC-UV relative to a single point calibration sample.

Row | Structure (SMILES) | IC50 (human MRGPRX2) | IC50 (Human LAD2 cells) | AUC 0-24 [1] | AUC(0-t) [1] | Cmax [1] | Tmax [1]
1 | CS(=O)(=O)Nc1cccc(C(=O)N[C@@H]2CCC[C@H](Nc3cc(C(F)(F)F)nc4ccc(Cl)cc34)C2)c1 (stereo in doubt) [Example 14, N-((1R,3S)-3-((6-chloro-2-(trifluoromethyl)quinolin-4-yl)amino)cyclohexyl)-3-(methylsulfonamido)benzamide] | < 100 nM | < 100 nM |  |  |  | 
2 | N#Cc1cccc(C(=O)N[C@@H]2CCC[C@H](Nc3cc(C(F)(F)F)nc4ccccc34)C2)c1 [Example 3-4] |  | 1000 to 2500 nM | 230 µM·h | 230 µM·h | 30 µM | 3.3 h
3 | O=C(N[C@@H]1CCC[C@H](Nc2cc(C(F)(F)F)nc3ccc(Cl)cc23)C1)c1cccc2ncsc12 [Example 4-225] | < 100 nM | < 100 nM |  |  |  | 
4 | CC(C)(O)Cn1cc(C(=O)N[C@@H]2CCC[C@H](Nc3cc(C(F)(F)F)nc4ccc(Cl)cc34)C2)c(Cl)n1 [Example 31, 3-chloro-N-[(1R,3S)-3-[[6-chloro-2-(trifluoromethyl)-4-quinolyl]amino]cyclohexyl]-1-(2-hydroxy-2-methylpropyl)pyrazole-4-carboxamide] | < 100 nM | < 100 nM | 740 µM·h | 740 µM·h | 74 µM | 1.7 h
5 | O=C(N[C@@H]1CCC[C@H](Nc2cc(C(F)(F)F)nc3ccc(Cl)cc23)C1)N1CC2(CC2)C1 [Example 8-9] | < 100 nM | 100 to 500 nM |  |  |  | 
6 | COc1ccc(C(=O)N[C@@H]2CCC[C@H](Nc3cc(C(F)(F)F)nc4ccc(Cl)cc34)C2)cc1 [Example 1, N-((1R,3S)-3-((6-chloro-2-(trifluoromethyl)quinolin-4-yl)amino)cyclohexyl)-4-methoxybenzamide] |  | < 100 nM | 78 µM·h | 78 µM·h | 6.1 µM | 8 h
7 | O=C(N[C@@H]1CCC[C@H](Nc2cc(C(F)(F)F)nc3ccc(Cl)cc23)C1)c1cn(CC(F)(F)F)nc1Cl [Example 30, 3-chloro-N-((1R,3S)-3-((6-chloro-2-(trifluoromethyl)quinolin-4-yl)amino)cyclohexyl)-1-(2,2,2-trifluoroethyl)-1H-pyrazole-4-carboxamide] | < 100 nM | < 100 nM | 150 µM·h | 150 µM·h | 13 µM | 0.5 h
8 | COc1ccc(C(=O)N[C@@H]2CCC[C@H](Nc3cc(C(F)(F)F)nc4ccc(Cl)cc34)C2)cn1 [Example 4-414] | < 100 nM | < 100 nM | 140 µM·h | 140 µM·h | 11 µM | 4 h
9 | O=C(N[C@@H]1CCC[C@H](Nc2cc(C(F)(F)F)nc3ccc(Cl)cc23)C1)c1ccc(B(O)O)cc1 [Example 4-430] | < 100 nM | < 100 nM |  |  |  | 
10 | Nc1ncc(C(=O)N[C@@H]2CCC[C@H](Nc3cc(C(F)(F)F)nc4ccc(Cl)cc34)C2)cn1 [Example 15, 2-amino-N-[(1R,3S)-3-{[6-chloro-2-(trifluoromethyl)quinolin-4-yl]amino}cyclohexyl]pyrimidine-5-carboxamide] |  | < 100 nM | 140 µM·h | 140 µM·h | 36 µM | 1 h
11 | O=C(N[C@@H]1CCC[C@H](Nc2cc(C(F)(F)F)nc3ccccc23)C1)c1ccc(F)cc1 [Example 1-8] |  | > 2500 nM | 650 µM·h | 650 µM·h | 48 µM | 8 h
12 | CNc1ccc(C(=O)N[C@@H]2CCC[C@H](Nc3cc(C(F)(F)F)nc4ccc(F)cc34)C2)cc1 [Example 4-303] | < 100 nM | < 100 nM |  |  |  | 
13 | N#Cc1nn(CC(F)(F)F)cc1C(=O)N[C@@H]1CCC[C@H](Nc2cc(C(F)(F)F)nc3ccc(Cl)cc23)C1 [Example 32, N-[(1R,3S)-3-[[6-chloro-2-(trifluoromethyl)-4-quinolyl]amino]cyclohexyl]-3-cyano-1-(2,2,2-trifluoroethyl)pyrazole-4-carboxamide] | < 100 nM | < 100 nM | 390 µM·h | 390 µM·h | 39 µM | 4.7 h
14 | COc1ccc(C(=O)N[C@@H]2CCC[C@H](Nc3cc(C(F)(F)F)nc4ccc(C)cc34)C2)cc1 [Example 1-3] | < 100 nM | 100 to 500 nM | 83 µM·h | 83 µM·h | 13 µM | 0.83 h
15 | Cn1cc(C(=O)N[C@@H]2CCC[C@H](Nc3cc(C(F)(F)F)nc4ccc(Cl)cc34)C2)cn1 [Example 4-400] | < 100 nM | < 100 nM | 640 µM·h | 640 µM·h | 61 µM | 1.3 h
16 | CCS(=O)(=O)Nc1cccc(C(=O)N[C@@H]2CCC[C@H](Nc3cc(C(F)(F)F)nc4ccc(F)cc34)C2)c1 [Example 4-304] | < 100 nM | < 100 nM |  |  |  | 
